From patent US20120289612A1, “Composite Material and Method for Producing the Same” (HOUSE FOODS CORPORATION, priority 2010, published 2012)

Test system: acylase
Assay: Enzyme addition: decomposition of capsaicin by acylase, HPLC
Assay type: physicochemical
Details: acylase 0.05 u/ml, 50 mM tris buffer, 37° C., capsaicin 0.0028%, relative to beginning of shaking
Procedure: Each of the samples obtained in Reference Example 2 and Reference Comparative Example 2 was diluted 10-fold with a 50 mM tris buffer (capsaicin concentration: 0.0028%). To this liquid, an acylase was added at a concentration of 0.05 u/ml. The mixture was shaken in a constant-temperature water bath at 37° C. to allow the reaction of the enzyme to proceed.
Meanwhile, as Reference Example, a capsaicin reagent (capsaicin content: 95% or more) manufactured by SIGMA was diluted with a 50 mM tris buffer such that the capsaicin concentration was the same as that (0.0028%) in Reference Example 2 and Reference Comparative Example 2. To this liquid, an acylase was added at a concentration of 0.05 u/ml. The mixture was shaken in a constant-temperature water bath at 37° C. in the same manner as in Reference Example 2 and Reference Comparative Example 2, to allow the reaction of the enzyme to proceed.
To 2 ml of each sample in which the reaction of the enzyme was allowed to proceed for 0 (at the beginning of the shaking) minutes, 30 minutes, or 60 minutes, 3 ml of water was added, and thus the volume thereof was adjusted to 5 ml. Moreover, 1 ml of 2.5 N NaOH was added thereto, followed by heating in boiling water at 100° C. for 10 minutes. After the heating, 20 ml of methanol was added thereto. […] For the HPLC measurement, a fluorescence detector was used. […]

In the case of `COc1cc(CNC(=O)CCCC/C=C/C(C)C)ccc1O` [Reference Example, capsaicin], the “ratio of capsaicin remaining after the enzymatic reaction for 60 minutes” value is reported as 2.0%.
